Source: patent publication US20200339604A1, “PYRAZOLOPYRIMIDINE COMPOUNDS AS JAK INHIBITORS” (Genentech, Inc., priority 2018, published 2020)
Where two headings read alike, the source gives them in different places.

Columns and labels:
[1] = molecular target: T1, isolated recombinant JAK1 kinase domain (Homo sapiens, UniProt P23458); test: JAK enzyme assay, JAK1 kinase domain (Caliper LabChip); type: biochemical; conditions: 1.5 nM JAK1, ATP 25 μM, Morrison tight binding model
T1 construct: isolated recombinant JAK1 and JAK2 kinase domain
T1 sequence (P23458 875-1153 limits assumed): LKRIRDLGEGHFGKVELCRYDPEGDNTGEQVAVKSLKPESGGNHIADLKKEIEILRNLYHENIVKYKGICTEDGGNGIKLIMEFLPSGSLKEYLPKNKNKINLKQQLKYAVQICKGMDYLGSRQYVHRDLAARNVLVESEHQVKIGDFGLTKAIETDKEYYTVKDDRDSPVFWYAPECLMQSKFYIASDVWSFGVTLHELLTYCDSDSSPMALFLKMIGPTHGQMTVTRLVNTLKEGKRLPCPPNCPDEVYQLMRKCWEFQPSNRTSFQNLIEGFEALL
Protocol: (§1) JAK Enzyme Assays were Carried Out as Follows:
(§2) The activity of the isolated recombinant JAK1 and JAK2 kinase domain was measured by monitoring phosphorylation of a peptide derived from JAK3 ([…] fluorescently labeled on the N-terminus with 5-carboxyfluorescein) using the Caliper LabChip® technology (Caliper Life Sciences, Hopkinton, Mass.). To determine inhibition constants (K), compounds were diluted serially in DMSO and added to 50 μL kinase reactions containing purified enzyme (1.5 nM JAK1, or 0.2 nM JAK2), 100 mM HEPES buffer (pH 7.2), 0.015% Brij-35, 1.5 μM peptide substrate, ATP (25 μM), 10 mM MgCl2, 4 mM DTT at a final DMSO concentration of 2%.
(§3) Reactions were incubated at 22° C. in 384-well polypropylene microtiter plates for 30 minutes and then stopped by addition of 25 µL of an EDTA containing solution (100 mM HEPES buffer (pH 7.2), 0.015% Brij-35, 150 mM EDTA), resulting in a final EDTA concentration of 50 mM. After termination of the kinase reaction, the proportion of phosphorylated product was determined as a fraction of total peptide substrate using the Caliper LabChip® 3000 according to the manufacturer's specifications. K values were then determined using the Morrison tight binding model (Morrison, J. F., Biochim. Biophys. Acta. 185:269-296 (1969); William, J. W. and Morrison, J. F., Meth. Enzymol., 63:437-467 (1979)) modified for ATP-competitive inhibition [Ki=Ki, app/(1+[ATP]/Km,app)].

[2] = tested on: JAK1-dependent STAT6 phosphorylation downstream of IL-13 stimulation, BEAS-2B human bronchial epithelial cells; test: JAK1 pathway assay in cell lines: IL-13 stimulated STAT6 phosphorylation in BEAS-2B cells (MSD); type: cell-based; conditions: IL-13 stimulation 15 min at EC90, read-out: IL-13 p-STAT6 BEAS-2B IC50
Protocol: JAK1 Pathway Assay in Cell Lines was Carried Out as Follows:
Inhibitor potency (EC50) was determined in cell-based assays designed to measure JAK1 dependent STAT phosphorylation. As noted above, inhibition of IL-4, IL-13, and IL-9 signaling by blocking the Jak/Stat signaling pathway can alleviate asthmatic symptoms in pre-clinical lung inflammation models (Mathew et al., 2001, J Exp Med 193(9): 1087-1096; Kudlacz et. al., 2008, Eur J. Pharmacol 582(1-3): 154-161).
In one assay approach, TF-1 human erythroleukemia cells obtained from the American Type Culture Collection (ATCC; Manassas, Va.) were used to measure JAK1-dependent STAT6 phosphorylation downstream of IL-13 stimulation. Prior to use in the assays, TF-1 cells were starved of GM-CSF overnight in OptiMEM medium (Life Technologies, Grand Island, N.Y.) supplemented with 0.5% charcoal/dextran stripped fetal bovine serum (FBS), 0.1 mM non-essential amino acids (NEAA), and 1 mM sodium pyruvate. The assays were run in 384-well plates in serum-free OptiMEM medium using 300,000 cells per well. In a second assay approach, BEAS-2B human bronchial epithelial cells obtained from ATCC were plated at 100,000 cells per well of a 96-well plate one day prior to the experiment. The BEAS-2B assay was run in complete growth medium (bronchial epithelial basal medium plus bulletkit; Lonza; Basel, Switzerland).
Test compounds were serially diluted 1:2 in DMSO and then diluted 1:50 in medium just before use. Diluted compounds were added to the cells, for a final DMSO concentration of […], and incubated for 30 m (for the TF-1 assay) or […] (for the BEAS-2B assay) at 37° C. Then, cells were stimulated with human recombinant cytokine at their respective EC90 concentrations, as previously determined for each individual lot. Cells were stimulated with IL-13 (R&D Systems, Minneapolis, Minn.) for 15 min at 37° C. The TF-1 cell reactions were stopped by the direct addition of 10× lysis buffer (Cell Signaling Technologies, Danvers, Mass.), whereas the BEAS-2B cell incubations were halted by the removal of medium and addition of 1× lysis buffer. The resultant samples were frozen in the plates at −80° C. Compound mediated inhibition of STAT6 phosphorylation was measured in the cell lysates using MesoScale Discovery (MSD) technology (Gaithersburg, Md.).

[3] = molecular target: T2, isolated recombinant JAK2 kinase domain (Homo sapiens, UniProt O60674); test: JAK enzyme assay, JAK2 kinase domain (Caliper LabChip); type: biochemical; conditions: 0.2 nM JAK2, ATP 25 μM, Morrison tight binding model
T2 construct: isolated recombinant JAK1 and JAK2 kinase domain
T2 sequence (O60674 849-1124 limits assumed): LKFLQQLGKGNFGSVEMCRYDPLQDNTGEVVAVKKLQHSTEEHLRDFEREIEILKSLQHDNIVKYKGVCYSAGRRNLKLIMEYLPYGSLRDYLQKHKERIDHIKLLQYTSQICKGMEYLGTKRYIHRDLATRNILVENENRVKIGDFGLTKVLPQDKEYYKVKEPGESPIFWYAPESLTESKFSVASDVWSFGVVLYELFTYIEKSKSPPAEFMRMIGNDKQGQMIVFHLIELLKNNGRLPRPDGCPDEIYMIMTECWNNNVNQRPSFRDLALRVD
Protocol: as §1, §2, §3

| Structure (SMILES) | Ki [1] [nM] | IC50 [2] [nM] | Ki [3] [nM] | IC50 ([2]; Homo sapiens, BEAS-2B, […]) [nM] |
| --- | --- | --- | --- | --- |
| CN1CCC(n2cc(NC(=O)c3cnn4cccnc34)c(-c3cc4c(cc3OC(F)F)NCCO4)n2)C1=O (single isomer, unassigned) [Example 11, N-[3-[6-(difluoromethoxy)-3,4-dihydro-2H-1,4-benzoxazin-7-yl]-1-(1-methyl-2-oxo-pyrrolidin-3-yl)pyrazol-4-yl]pyrazolo[1,5-a]pyrimidine-3-carboxamide] | 1.2 | 230 | 0.5 | – |
| CN1CCC(n2cc(NC(=O)c3cnn4cccnc34)c(-c3cc4c(cc3OC(F)F)NCCS4)n2)C1=O (single isomer, unassigned) [Example 13, N-[3-[6-(difluoromethoxy)-3,4-dihydro-2H-1,4-benzothiazin-7-yl]-1-(1-methyl-2-oxo-pyrrolidin-3-yl)pyrazol-4-yl]pyrazolo[1,5-a]pyrimidine-3-carboxamide] | 0.88 | 290 | 0.43 | – |
| O=C(Nc1cn(C2CCN(CCN3CCOCC3)C2=O)nc1-c1cc(Cl)ccc1OC(F)F)c1cnn2cccnc12 (single isomer, unassigned) [Example 14, N-[3-[5-chloro-2-(difluoromethoxy)phenyl]-1-[1-(2-morpholinoethyl)-2-oxo-pyrrolidin-3-yl]pyrazol-4-yl]pyrazolo[1,5-a] pyrimidine-3-carboxamide] | 1.2 | – | 1.4 | 79 |
| CN1CCN(C(=O)CN2CCC(n3cc(NC(=O)c4cnn5cccnc45)c(-c4cc(Cl)ccc4OC(F)F)n3)C2=O)CC1 (single isomer, unassigned) [Example 16, N-[3-[5-chloro-2-(difluoromethoxy)phenyl]-1-[1-[2-(4-methylpiperazin-1-yl)-2-oxo-ethyl]-2-oxo-pyrrolidin-3-yl]pyrazol-4-yl]pyrazolo[1,5-a]pyrimidine-3-carboxamide] | 2.8 | – | 0.68 | 200 |
| CN1CCN(C(=O)CN2CCC(n3cc(NC(=O)c4cnn5cccnc45)c(-c4cc(Cl)ccc4OC(F)F)n3)C2=O)CC1 (single isomer, unassigned) [Example 17, N-[3-[5-chloro-2-(difluoromethoxy)phenyl]-1-[1-[2-(4-methylpiperazin-1-yl)-2-oxo-ethyl]-2-oxo-pyrrolidin-3-yl]pyrazol-4-yl]pyrazolo[1,5-a]pyrimidine-3-carboxamide] | 2.6 | 300 | 1.5 | – |
| CN1CCC(n2cc(NC(=O)c3cnn4cccnc34)c(-c3cc(SC(F)F)ccc3OC(F)F)n2)C1=O (single isomer, unassigned) [Example 18, N-[3-[2-(difluoromethoxy)-5-(difluoromethyl-sulfanyl)phenyl]-1-(1-methyl-2-oxo-pyrrolidin-3-yl)pyrazol-4-yl]pyrazolo[1,5-a]pyrimidine-3-carboxamide] | 0.28 | 15 | 0.39 | – |
| CN1CCC(n2cc(NC(=O)c3cnn4cccnc34)c(-c3cc(SC(F)F)ccc3OC(F)F)n2)C1=O (single isomer, unassigned) [Example 19, N-[3-[2-(difluoromethoxy)-5-(difluoromethyl-sulfanyl)phenyl]-1-(1-methyl-2-oxo-pyrrolidin-3-yl)pyrazol-4-yl]pyrazolo[1,5-a]pyrimidine-3-carboxamide] | 2.5 | 59 | 0.55 | – |
| CN1CCCC(n2cc(NC(=O)c3cnn4cccnc34)c(-c3cc(Cl)ccc3OC(F)F)n2)C1=O (single isomer, unassigned) [Example 20, N-[3-[5-chloro-2-(difluoromethoxy)phenyl]-1-(1-methyl-2-oxo-3-piperidyl)pyrazol-4-yl]pyrazolo[1,5-a]pyrimidine-3-carboxamide] | 0.48 | 24 | 1.5 | – |
| CN1CCCC(n2cc(NC(=O)c3cnn4cccnc34)c(-c3cc(Cl)ccc3OC(F)F)n2)C1=O (single isomer, unassigned) [Example 21, N-[3-[5-chloro-2-(difluoromethoxy)phenyl]-1-(1-methyl-2-oxo-3-piperidyl)pyrazol-4-yl]pyrazolo[1,5-a]pyrimidine-3-carboxamide] | 4.1 | 74 | 2.1 | – |
| O=C(Nc1cn(C2CCN(C3COC3)C2=O)nc1-c1cc(Cl)ccc1OC(F)F)c1cnn2cccnc12 (single isomer, unassigned) [Example 23, N-[3-[5-chloro-2-(difluoromethoxy)phenyl]-1-[1-(oxetan-3-yl)-2-oxo-pyrrolidin-3-yl]pyrazol-4-yl]pyrazolo[1,5-a]pyrimidine-3-carboxamide] | 0.51 | 23 | 0.54 | – |
| O=C(Nc1cn(C2CCN(C3COC3)C2=O)nc1-c1cc(Cl)ccc1OC(F)F)c1cnn2cccnc12 (single isomer, unassigned) [Example 24, N-[3-[5-chloro-2-(difluoromethoxy)phenyl]-1-[1-(oxetan-3-yl)-2-oxo-pyrrolidin-3-yl]pyrazol-4-yl]pyrazolo[1,5-a]pyrimidine-3-carboxamide] | 3.9 | 57 | 0.98 | – |
| O=C(Nc1cn(C2CCOC2=O)nc1-c1cc(Cl)ccc1OC(F)F)c1cnn2cccnc12 (single isomer, unassigned) [Example 27, N-[3-[5-chloro-2-(difluoromethoxy)phenyl]-1-(2-oxotetrahydrofuran-3-yl)pyrazol-4-yl]pyrazolo[1,5-a]pyrimidine-3-carboxamide] | 0.77 | 24 | 0.5 | – |
| O=C(Nc1cn(C2CCOC2=O)nc1-c1cc(Cl)ccc1OC(F)F)c1cnn2cccnc12 (single isomer, unassigned) [Example 28, N-[3-[5-chloro-2-(difluoromethoxy)phenyl]-1-(2-oxotetrahydrofuran-3-yl)pyrazol-4-yl]pyrazolo[1,5-a]pyrimidine-3-carboxamide] | 0.35 | 11 | 0.2 | – |
| CSc1ccc(OC(F)F)c(-c2nn(C3CCOC3=O)cc2NC(=O)c2cnn3cccnc23)c1 (single isomer, unassigned) [Example 29, N-[3-[2-(difluoromethoxy)-5-methylsulfanyl-phenyl]-1-(2-oxotetrahydrofuran-3-yl)pyrazol-4-yl]pyrazolo[1,5-a]pyrimidine-3-carboxamide] | 0.3 | – | 0.15 | 9.2 |
| CSc1ccc(OC(F)F)c(-c2nn(C3CCOC3=O)cc2NC(=O)c2cnn3cccnc23)c1 (single isomer, unassigned) [Example 30, N-[3-[2-(difluoromethoxy)-5-methylsulfanyl-phenyl]-1-(2-oxotetrahydrofuran-3-yl)pyrazol-4-yl]pyrazolo[1,5-a]pyrimidine-3-carboxamide] | 0.15 | 11 | 0.096 | – |
| O=C(Nc1cn(C2CCOC2=O)nc1-c1cc(SC(F)F)ccc1OC(F)F)c1cnn2cccnc12 (single isomer, unassigned) [Example 31, N-[3-[2-(difluoromethoxy)-5-(difluoromethyl-sulfanyl)phenyl]-1-(2-oxotetrahydrofuran-3-yl)pyrazol-4-yl]pyrazolo[1,5-a]pyrimidine-3-carboxamide] | 0.7 | 16 | 0.4 | – |
